Values of other authors as cited in patent publication US20190269627A1, “MEMANTINE COMBINATIONS AND USE” (Chase Pharmaceuticals Corporation, priority 2016, published 2019).

Tested on: mice
Settings: 2 mg/kg

CC12CC3CC(C)(C1)CC(N)(C3)C2 [memantine, 3,5-dimethyladamantan-1-amine]
effect on scopolamine-induced learning deficits in the water maze: reverses scopolamine-induced learning deficits
